Bounds are passed on as bounds.

human RIP1 kinase domain (2-375), sequence (Q13546 2-375): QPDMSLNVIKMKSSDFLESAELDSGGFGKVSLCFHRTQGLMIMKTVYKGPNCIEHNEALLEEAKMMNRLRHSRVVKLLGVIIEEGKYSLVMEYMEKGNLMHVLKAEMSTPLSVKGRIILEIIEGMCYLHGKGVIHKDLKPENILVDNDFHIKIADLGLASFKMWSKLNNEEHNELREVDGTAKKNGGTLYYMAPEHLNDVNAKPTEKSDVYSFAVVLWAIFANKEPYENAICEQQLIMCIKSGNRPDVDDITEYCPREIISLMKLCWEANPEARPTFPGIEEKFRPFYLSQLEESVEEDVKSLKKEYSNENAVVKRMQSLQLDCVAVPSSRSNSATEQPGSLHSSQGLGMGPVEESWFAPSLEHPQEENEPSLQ

The assay has as its target human RIP1 kinase domain (2-375) (Homo sapiens (Human), UniProt Q13546). Kind of assay: RIP1 kinase inhibition biochemical assay (Transcreener ADP, fluorescence polarization). Conditions: apparent Ki (Morrison tight-binding fit); 50 nM enzyme, 50 μM ATP, 2 hours incubation. The protocol:
RIP1 Kinase Inhibition Assays (Biochemical Assay)
The compounds of the present invention were tested for their capacity to inhibit RIP1K activity as described below.
The ability of the receptor interacting protein kinase (RIPK1) to catalyze the hydrolysis of adenosine-5′-triphosphate (ATP) is monitored using the Transcreener ADP (adenosine-5′-diphosphate) assay (BellBrook Labs). Purified human RIP1 kinase domain (2-375) (50 nM) derived from a baculovirus-infected insect cell expression system is incubated with test compounds for 2 hours in 50 mM Hepes buffer (pH 7.5) containing 30 mM MgCl2, 1 mM dithiothreitol, 50 μM ATP, 0.002% Brij-35, and 0.5% dimethyl sulfoxide (DMSO). Reactions are quenched by the addition of 1× Bell Brooks Stop buffer B (20 mM Hepes (ph7.5), 40 mM ethylenediaminetetraacetic acid and 0.02% Brij-35) containing an additional 12 mM EDTA and 55 ug/mL ADP2 antibody and 4 nM ADP-AlexaFluor® 633 tracer. The tracer bound to the antibody is displaced by the ADP generated during the RIP1K reaction, which causes a decrease in fluorescence polarization that is measured by laser excitation at 633 nm with a FP microplate reader M1000. Fractional activity was plotted against test article concentration. Using Genedata Screener software (Genedata; Basel, Switzerland), the data were fit to the tight-binding apparent inhibition constant (Ki^app) Morrison equation [Williams, J. W. and Morrison, J. F. (1979) The kinetics of reversible tight-binding inhibition. Methods Enzymol 63: 437-67]. The following equation was used to calculate fractional activity and Ki^app:
[formula] where [E]T and [I]T are the total concentrations of active enzyme and test article, respectively.
Exemplary compounds of the present invention are provided in Table 1 along with their physiochemical characterization and in vitro RIP1 kinase inhibitory activity data. “Method” in the first column of each table refers to the synthetic method(s) used to prepare each compound as shown in the Examples above.
Background: In fluorescence polarisation assays a small probe gives low polarisation when free and higher when bound to something large.
For `CC1(C)OCC2CC21C(=O)c1nc2n(n1)[C@H](c1ccccc1)C[C@@H]2F` (mixture of isomers) [Example 3, (2,2-dimethyl-3-oxabicyclo[3.1.0]hexan-1-yl)-[rac-(5S,7S)-7-fluoro-5-phenyl-6,7-dihydro-5H-pyrrolo[1,2-b][1,2,4]triazol-2-yl]methanone], the Ki was 84 nM.
As for `O=C(c1nc2n(n1)[C@H](c1cncc(F)c1)C[C@@H]2F)C1CC1` (single isomer, unassigned) [Example 1], the Ki was determined as 9 nM.
Regarding `O=C(c1nc2n(n1)[C@@H](c1cncc(F)c1)C[C@H]2F)C1CC1` (single isomer, unassigned) [Example 2], the Ki was more than 10000 nM.
For `CCC(=O)c1nc2n(n1)[C@H](c1cnn(C)c1)C[C@@H]2F` (single isomer, unassigned) [Example 6], the Ki was 25 nM.
The figure for `CC(=O)N1CC(C(=O)c2nc3n(n2)[C@H](c2ccccc2)C[C@@H]3F)C1` (single isomer, unassigned) [Example 7] is 130 nM; for `N#Cc1cccc([C@@H]2C[C@H](F)c3nc(C(=O)C4CC4)nn32)c1` (single isomer, unassigned) [Example 8] it is 28 nM; for `O=C(c1nc2n(n1)[C@H](c1cccc(Cl)c1)C[C@@H]2F)C1CC1` (single isomer, unassigned) [Example 9] it is 6.5 nM.
For the molecule `CC(C)(CO)C(=O)c1nc2n(n1)[C@H](c1ccccc1)C[C@@H]2F` [Example 4, 3-hydroxy-2,2-dimethyl-1-((5S,7S)-7-fluoro-5-phenyl-6,7-dihydro-5H-pyrrolo[1,2-b][1,2,4]triazol-2-yl)propan-1-one], the Ki came out at 31 nM.
For `CC(C)(COC(F)F)C(=O)c1nc2n(n1)[C@H](c1ccccc1)C[C@@H]2F` [Example 5, 3-(difluoromethoxy)-2,2-dimethyl-1-((5S,7S)-7-fluoro-5-phenyl-6,7-dihydro-5H-pyrrolo[1,2-b][1,2,4]triazol-2-yl)propan-1-one], the Ki is less than 5 nM.
